Test results as given in article PMC3820767, “Turning Defense into Offense: Defensin Mimetics as Novel Antibiotics Targeting Lipid II” (PLoS Pathogens, 2013).

Experiments:
[1] = tested on: S. aureus MMX100 (ATCC 29213); assay: Macromolecular synthesis assays (mechanism of action); type: cell-based, Staphylococcus aureus
Protocol: Macromolecular synthesis inhibition by BAS00127538 and 1499-1221 were investigated using S. aureus MMX100 (ATCC 29213). Cells were grown at 35°C overnight on Tryptic Soy Agar Broth (Remel, Lenexa, KS), and growth from the plate was used to inoculate 15 ml of Mueller Hinton Broth. The culture was grown to early exponential growth phase (OD600 = 0.2 to 0.3) while incubating in a shaker at 35°C and 150 rpm. For each macromolecular assay, the test agents 1499-1221 and BAS00127538 were added at either 0, 0.25, 0.5, 1, 2, or 4, -fold their respective MIC values for S. aureus ATCC 29213.
For DNA and protein synthesis, 100 µl of cell culture reaching early exponential phase was added to triplicate wells containing various concentrations of test compound or control antibiotics (2.5 µl) at 40× the final concentration in 100% DMSO (0.1% methanol in water for Rifampicin). A 2.5% DMSO treated culture served as the “no drug” control for all experiments. Cells were added in 1.25× strength MHB to account for the volume of drug added to each reaction, or in M9 minimal medium for protein synthesis reactions. Following a 5 min incubation at room temperature either [^3H]Thymidine (DNA synthesis) or [^3H]Leucine (protein synthesis) was added at 0.5–1.0 µCi per reaction, depending on the experiment. Reactions were allowed to proceed at room temperature for 15–40 min and then stopped by adding 12 µl of cold 5% trichloroacetic acid (TCA) or 5% TCA/2% casamino acids (protein synthesis). Reactions were incubated on ice for 30 min and the TCA precipitated material was collected on a 25 mm GF/1.2 µm PES 96 well filter plate (Corning). After washing five times with 200 µl per well of cold 5% TCA, the filters were allowed to dry, and then counted using a Packard Top Count microplate scintillation counter.
For cell wall synthesis, bacterial cells in early exponential growth phase were transferred to M9 minimal medium and added to 1.5 ml eppendorf tubes (100 µl/tube) containing various concentrations of test compound or control antibiotics (2.5 µl) at 40× the final concentration in 100% DMSO as described above. Following a 5 min incubation at 37°C, [^14C] N-acetyl-glucosamine (0.4 µCi/reaction) was added to each tube and incubated for 45 min in a 37°C heating block. […] After washing three times with 5 ml of 0.1% SDS, the filters were rinsed two times with 5 ml of deionized water, allowed to dry, and then counted using a Beckman LS3801 liquid scintillation counter.
For lipid synthesis, bacterial cells were grown to early exponential growth phase in MHB and 100 µl was added to 1.5 ml Eppendorf tubes (in triplicate) containing various concentrations of test compound or control antibiotics as described above. […] Samples were then counted via liquid scintillation counting. […]

[2] = tested on: Streptococcus pneumonia (PRSP) MMX884; assay: Broth microdilution susceptibility testing (CLSI); type: cell-based, Streptococcus pneumoniae; conditions: Streptococcus pneumoniae, PRSP, read-out: MIC Streptococcus pneumonia (PRSP) 884-NA
Protocol: The antibacterial activity of defensin mimetics against Staphylococcus aureus ATCC 29213 and Escherichia coli 25922 was carried out in a 96-well turbidimetric assay essentially as described previously with the following modifications: bacteria were exposed for 30 min to compounds in 10 mM phosphate buffer containing 5% DMSO prior to addition of 2× Muller-Hinton medium. Bacterial growth was monitored for 12 hours and data were analyzed as described. Determination of MICs was performed by Micromyx, LLC (Kalamazoo, Michigan) according to CLSI standards.

S. aureus ATCC 29213 = assay: Murine peritoneal sepsis model; type: in vivo, C57BL/6J mice; conditions: mice n = 5, i.p. treatment 1 h and 4 h post-infection; compound […], vancomycin/lysostaphin 5 mg/kg
Protocol: Mice were fed standard chow (Harlan Laboratories) and water ad libitum. […] Animals were closely observed during a period of 24 hours and mice that show signs of severe sepsis were humanely euthanized. Blood samples were collected by retro-orbital puncture at the indicated intervals post-infection using lithium-heparin polystyrene tubes to prevent coagulation. […] Whole blood samples and spleen homogenates were serially diluted and plated onto LB agar plates.

Compound: CN(C)c1ccc(/C=C/c2cc(-c3ccccc3)[o+]c(-c3ccccc3)c2)cc1 [Compound 1499-1221]
- likely primary mechanism of action ([1]; mechanism of action studies, Figure S4): membrane perturbation
- MIC [2]: > 8 µg/mL

Compound: CN1/C(=C/C=C/c2cc(-c3ccccc3)cc(-c3ccccc3)[o+]2)C(C)(C)c2ccccc21 [BAS00127538, 2,4-diphenyl-6-[(1E)-3-[(2E)-1,3,3-trimethyl-2,3-dihydro-1H-indol-2-ylidene]prop-1-en-1-yl]-1$l^4-pyran-1-ylium]
- survival (S. aureus ATCC 29213): 4 out of five animals
- inhibition of DNA, lipid or protein synthesis ([1]; 1× MIC): not DNA, lipid or protein synthesis
- inhibition of cell wall synthesis ([1]; 1× MIC, [14C]N-acetyl-glucosamine incorporation): significantly inhibited cell wall synthesis
- DNA, protein and lipid synthesis ([1]; elevated concentrations (above 1× MIC)): reduced
- MIC [2]: 8 µg/mL
